The subject of experiment [1] is SHH/PTCH pathway. Description: Inhibition of purmorphamine-induced luciferase activity in SK PTCH1-Luc E6/E7 keratinocytes. The experiment is classed as cell-based. The settings on record: Homo sapiens, Keratinocyte, SK PTCH1-Luc E6/E7 cells, co-treatment 48 hours with 2.5 μM purmorphamine (EC80). As for the experimental part:
(§1) Purmorphamine (SMO agonist) and GDC-0449 (SMO antagonist) were diluted in DMSO at stock concentrations of 50 mM and 10 mM, respectively. To avoid side effects and toxicity, the final concentration of DMSO was fixed to 0.1% DMSO.
(§2) Lysis buffer and luciferase reagents were from the Steady-Glo® Luciferase Assay System kit (Promega, #E2520). Plates were read on a […] (TopCount, Perkin Elmer).
(§3) Experimental conditions of activation using SMO agonist of the PTCH1-Luc-E6 E7 reporter cells were first set up for optimisation. The SK PTCH1-Luc E6/E7 cells were plated in 96-well at various densities (5000 to 50000 cells/well) in opaque plates (Greiner, ref: 655083). In parallel, in order to follow cell growth, confluency, and lysis, the cell line was also seeded in transparent 96 wells plates (Greiner 655098). Serial dilutions of purmorphamine were prepared (0.2 nM<Conc.<50 μM). Results were matched with EC50 and IC50 values obtained in the SHH-Light II cell line.
Co-treatment of SK PTCH1-Luc E6/E7 cells with purmorphamine and GDC-0449 led to the inhibition of the luciferase activity (FIG. 5). Under these circumstances, the IC50 of GDC-0449 was determined at 0.2 μM.

Experiment [2] concerns SHH/PTCH pathway. Description: Activation of PTCH1-luciferase reporter activity in SK PTCH1-Luc E6/E7 keratinocytes. The class given is cell-based, human. The settings on record: SK PTCH1-Luc E6/E7 cells, cultured 24 hours. As for the experimental part: as §1, §2, §3
Once experimental conditions optimized, SK PTCH1-Luc E6/E7 cells were plated at 45.000 cells per well, culture for 24 hours then treated for 48 hours by serial dilutions of purmorphamine. Each condition was done in duplicate and the experiment was performed at least twice. SK PTCH1-Luc E6/E7 cells responded to activation of the SHH/PTCH pathway when treated with purmorphamine and the EC50 value was determined at 1 μM (FIG. 3).
(A reporter such as luciferase makes a cellular process visible.)

Broadly, the IC50 is the concentration that gives 50% inhibition. As for `CS(=O)(=O)c1ccc(C(=O)Nc2ccc(Cl)c(-c3ccccn3)c2)c(Cl)c1` [GDC-0449], the IC50 in experiment [1] is 0.2 µM.
As usually defined, the EC50 is the midpoint of the concentration-response curve. A higher EC50 goes with a need for much substance. Turning to `c1ccc2c(Oc3nc(Nc4ccc(N5CCOCC5)cc4)c4ncn(C5CCCCC5)c4n3)cccc2c1` [purmorphamine, Purmorphamine], the EC50 in experiment [2] (Homo sapiens, Keratinocyte, 45.000 cells per well, treated 48 hours) is 1 µM. In addition, the “effective concentration for 80% activation (EC80)” value in experiment [2] (45.000 cells/well, treated 48 hrs) worked out at 2.5 µM.

The values above are taken from patent US9902934B2, “Human keratinocytes PTCH1 cell line” (GALDERMA RESEARCH & DEVELOPMENT, priority 2011, dated 2018).
